{"source": "paper PMC5218480", "about": "(PLoS ONE, 2017)", "test_system": "MV-4-11 cells", "test": "Gene expression microarray analysis (Affymetrix PrimeView) and GSEA", "type": "cell-based, human", "parameters": "RFU PODN (11730768_x_at) / Fold change /veh PODN (11730768_x_at) / RFU LINC00158 (11744669_a_at) / Fold change /veh LINC00158 (11744669_a_at) / RFU DUSP10 (11751237_a_at) / Fold change /veh DUSP10 (11751237_a_at) / RFU ID3 (11757404_x_at) / Fold change /veh ID3 (11757404_x_at) / RFU PLEKHG5 (11737974_s_at) / Fold change /veh PLEKHG5 (11737974_s_at) / RFU LRRC4B (11730491_at) / Fold change /veh LRRC4B (11730491_at) / RFU GIMAP4 (11747438_a_at) / Fold change /veh GIMAP4 (11747438_a_at) / RFU KRT8 (11758183_x_at) / Fold change /veh KRT8 (11758183_x_at) / RFU CNN1 (11734310_a_at) / Fold change /veh CNN1 (11734310_a_at) / RFU VPS37D (11726825_at) / Fold change /veh VPS37D (11726825_at) / RFU C10orf10 (11716522_x_at) / Fold change /veh C10orf10 (11716522_x_at) / RFU KIR2DL2 /// KIR2DL4 /// KIR2DL5A /// KIR2DL5B /// KIR2DS1 /// KIR2DS2 /// KIR2DS3 /// KIR2DS4 /// KIR3DL3 /// KIR3DL3 /// KIR3DS1 (11738374_at) / Fold change /veh KIR2DL2 /// KIR2DL4 /// KIR2DL5A /// KIR2DL5B /// KIR2DS1 /// KIR2DS2 /// KIR2DS3 /// KIR2DS4 /// KIR3DL3 /// KIR3DL3 /// KIR3DS1 (11738374_at) / RFU C1QL1 (11718748_at) / Fold change /veh C1QL1 (11718748_at) / RFU TMPRSS4 (11747572_a_at) / Fold change /veh TMPRSS4 (11747572_a_at) / RFU HAMP (11756126_x_at) / Fold change /veh HAMP (11756126_x_at) / RFU RNFT2 (11725882_a_at) / Fold change /veh RNFT2 (11725882_a_at) / RFU NR4A2 (11747474_a_at) / Fold change /veh NR4A2 (11747474_a_at) / RFU ABCC12 (11746883_a_at) / Fold change /veh ABCC12 (11746883_a_at) / RFU TMEM136 (11760407_x_at) / Fold change /veh TMEM136 (11760407_x_at) / RFU CLDN22 /// WWC2 (11732394_at) / Fold change /veh CLDN22 /// WWC2 (11732394_at) / RFU HLA-DPB1 (11760878_x_at) / Fold change /veh HLA-DPB1 (11760878_x_at) / RFU SPINT1 (11716480_a_at) / Fold change /veh SPINT1 (11716480_a_at) / RFU GAP43 (11754022_s_at) / Fold change /veh GAP43 (11754022_s_at) / RFU A4GNT (11735810_at) / Fold change /veh A4GNT (11735810_at) / RFU PRB3 (11715151_x_at) / Fold change /veh PRB3 (11715151_x_at) / RFU TUBB4B (11761932_at) / Fold change /veh TUBB4B (11761932_at) / RFU CAPN14 (11732068_a_at) / Fold change /veh CAPN14 (11732068_a_at) / RFU TMCC2 (11721928_a_at) / Fold change /veh TMCC2 (11721928_a_at) / RFU IRGQ (11745062_a_at) / Fold change /veh IRGQ (11745062_a_at) / RFU FAM174B (11720279_a_at) / Fold change /veh FAM174B (11720279_a_at) / RFU TMPRSS4 (11748680_a_at) / Fold change /veh TMPRSS4 (11748680_a_at) / RFU FAM212B (11763350_a_at) / Fold change /veh FAM212B (11763350_a_at) / RFU PLEKHG5 (11743358_a_at) / Fold change /veh PLEKHG5 (11743358_a_at) / RFU ZSCAN30 (11745921_a_at) / Fold change /veh ZSCAN30 (11745921_a_at) / RFU CMKLR1 (11741424_a_at) / Fold change /veh CMKLR1 (11741424_a_at) / RFU LOC101060620 /// MAPK8IP1 (11723275_at) / Fold change /veh LOC101060620 /// MAPK8IP1 (11723275_at) / RFU SPTSSB (11747773_x_at) / Fold change /veh SPTSSB (11747773_x_at) / RFU PRSS12 (11739890_at) / Fold change /veh PRSS12 (11739890_at) / RFU BIN1 (11741810_x_at) / Fold change /veh BIN1 (11741810_x_at) / RFU WNT11 (11732464_a_at) / Fold change /veh WNT11 (11732464_a_at) / RFU C10orf10 (11716521_a_at) / Fold change /veh C10orf10 (11716521_a_at) / RFU C5orf56 (11738089_at) / Fold change /veh C5orf56 (11738089_at) / RFU CYB561 (11721691_x_at) / Fold change /veh CYB561 (11721691_x_at) / RFU ANKRD19P (11752326_a_at) / Fold change /veh ANKRD19P (11752326_a_at) / RFU OR2T12 /// OR2T33 /// OR2T8 (11738714_s_at) / Fold change /veh OR2T12 /// OR2T33 /// OR2T8 (11738714_s_at) / RFU VCAN (11748164_a_at) / Fold change /veh VCAN (11748164_a_at) / RFU JSRP1 (11732532_at) / Fold change /veh JSRP1 (11732532_at) / RFU KRTAP10-11 (11738290_x_at) / Fold change /veh KRTAP10-11 (11738290_x_at) / RFU MYO3A (11730013_a_at) / Fold change /veh MYO3A (11730013_a_at) / RFU EBF3 (11725865_a_at) / Fold change /veh EBF3 (11725865_a_at) / RFU CAMK2N1 (11719241_x_at) / Fold change /veh CAMK2N1 (11719241_x_at) / RFU C5orf56 (11738088_a_at) / Fold change /veh C5orf56 (11738088_a_at) / RFU OLFML3 (11715873_a_at) / Fold change /veh OLFML3 (11715873_a_at) / RFU LOC100653217 /// NTM (11731650_a_at) / Fold change /veh LOC100653217 /// NTM (11731650_a_at) / RFU MAPK11 (11762145_a_at) / Fold change /veh MAPK11 (11762145_a_at) / RFU FIZ1 (11724087_x_at) / Fold change /veh FIZ1 (11724087_x_at) / RFU OASL (11726364_x_at) / Fold change /veh OASL (11726364_x_at) / RFU SOX15 (11748057_x_at) / Fold change /veh SOX15 (11748057_x_at) / RFU CD79A (11719716_a_at) / Fold change /veh CD79A (11719716_a_at) / RFU HIST1H1D (11736915_at) / Fold change /veh HIST1H1D (11736915_at) / RFU CASKIN2 (11723855_a_at) / Fold change /veh CASKIN2 (11723855_a_at) / RFU LOC730098 (11760151_x_at) / Fold change /veh LOC730098 (11760151_x_at) / RFU OR4N2 (11742367_at) / Fold change /veh OR4N2 (11742367_at) / RFU PRRT2 (11749266_a_at) / Fold change /veh PRRT2 (11749266_a_at) / RFU SNX32 (11753110_a_at) / Fold change /veh SNX32 (11753110_a_at) / RFU CDHR5 (11726645_a_at) / Fold change /veh CDHR5 (11726645_a_at) / RFU RCAN1 (11760418_a_at) / Fold change /veh RCAN1 (11760418_a_at) / RFU FAM167A (11723789_a_at) / Fold change /veh FAM167A (11723789_a_at) / RFU FAM26E (11764081_at) / Fold change /veh FAM26E (11764081_at) / RFU ISYNA1 (11749810_s_at) / Fold change /veh ISYNA1 (11749810_s_at) / RFU ACY1 (11761880_at) / Fold change /veh ACY1 (11761880_at) / RFU 11764098_at / Fold change /veh 11764098_at / RFU SAMD14 (11745864_x_at) / Fold change /veh SAMD14 (11745864_x_at) / RFU NPB (11741838_a_at) / Fold change /veh NPB (11741838_a_at) / RFU TMPRSS6 (11731388_a_at) / Fold change /veh TMPRSS6 (11731388_a_at) / RFU KRTAP10-2 (11738614_at) / Fold change /veh KRTAP10-2 (11738614_at) / RFU ARHGAP8 /// PRR5-ARHGAP8 (11727945_x_at) / Fold change /veh ARHGAP8 /// PRR5-ARHGAP8 (11727945_x_at) / RFU KRTAP5-7 /// NADSYN1 (11734609_at) / Fold change /veh KRTAP5-7 /// NADSYN1 (11734609_at) / RFU RASL12 (11751679_a_at) / Fold change /veh RASL12 (11751679_a_at) / RFU CDKN2B (11736163_a_at) / Fold change /veh CDKN2B (11736163_a_at) / RFU PRF1 (11729649_at) / Fold change /veh PRF1 (11729649_at) / RFU, ZNF638 /// ZNF638-IT1 / Fold change vs veh, ZNF638 /// ZNF638-IT1 / RFU, PANK3 / Fold change vs veh, PANK3 / RFU, SH3YL1 / Fold change vs veh, SH3YL1 / RFU, ZEB2 / Fold change vs veh, ZEB2 / RFU, NRIP1 / Fold change vs veh, NRIP1 / RFU, PTTG1IP / Fold change vs veh, PTTG1IP / RFU, CAPN2 / Fold change vs veh, CAPN2 / RFU, MED14 / Fold change vs veh, MED14 / RFU, SNORA58 / Fold change vs veh, SNORA58 / RFU, C1orf63 / Fold change vs veh, C1orf63 / RFU, LRRFIP1 / Fold change vs veh, LRRFIP1 / RFU, NDUFAF7 / Fold change vs veh, NDUFAF7 / RFU, SLC12A2 / Fold change vs veh, SLC12A2 / RFU, IBTK / Fold change vs veh, IBTK / RFU, ESF1 / Fold change vs veh, ESF1 / Fold change vs veh, TMEM50B / RFU, TAOK1 / Fold change vs veh, TAOK1 / RFU, ACBD3 / Fold change vs veh, ACBD3 / RFU, TMA16 / Fold change vs veh, TMA16 / RFU, RWDD3 / Fold change vs veh, RWDD3 / RFU, BCAT1 / Fold change vs veh, BCAT1 / RFU, EDEM3 / Fold change vs veh, EDEM3 / RFU, TMEM33 / Fold change vs veh, TMEM33 / RFU, WDR75 / Fold change vs veh, WDR75 / RFU, AHCTF1 / Fold change vs veh, AHCTF1 / RFU, TFRC / Fold change vs veh, TFRC / RFU, ZDHHC17 / Fold change vs veh, ZDHHC17 / RFU, NOM1 / Fold change vs veh, NOM1 / RFU, ARL8B / Fold change vs veh, ARL8B / RFU, ZBTB11 / Fold change vs veh, ZBTB11 / RFU, TAMM41 / Fold change vs veh, TAMM41 / RFU, KIAA1704 /// LOC100996395 / Fold change vs veh, KIAA1704 /// LOC100996395 / RFU, ING1 / Fold change vs veh, ING1 / RFU, TRMT61B / Fold change vs veh, TRMT61B / RFU, FUBP3 / Fold change vs veh, FUBP3 / RFU, TP53 / Fold change vs veh, TP53 / RFU, TNKS2 / Fold change vs veh, TNKS2 / RFU, ZFP14 / Fold change vs veh, ZFP14 / RFU, ACTR2 / Fold change vs veh, ACTR2 / RFU, PPP3R1 / Fold change vs veh, PPP3R1 / RFU, PIK3R1 / Fold change vs veh, PIK3R1 / RFU, HNRNPA1 / Fold change vs veh, HNRNPA1 / RFU, RNF170 / Fold change vs veh, RNF170 / RFU, ZNF28 / Fold change vs veh, ZNF28 / RFU, RNGTT / Fold change vs veh, RNGTT / RFU, OGT / Fold change vs veh, OGT / RFU, BRD1 / Fold change vs veh, BRD1 / RFU, MARS / Fold change vs veh, MARS / RFU, ZNF655 / Fold change vs veh, ZNF655 / RFU, FAHD1 / Fold change vs veh, FAHD1 / RFU, BDP1 / Fold change vs veh, BDP1 / RFU, LRRCC1 / Fold change vs veh, LRRCC1 / RFU, ARID1A / Fold change vs veh, ARID1A / RFU, ZNF146 / Fold change vs veh, ZNF146 / RFU, ZNF330 / Fold change vs veh, ZNF330 / RFU, GPN3 / Fold change vs veh, GPN3 / RFU, C9orf123 / Fold change vs veh, C9orf123 / RFU, N4BP2L2 / Fold change vs veh, N4BP2L2 / RFU, ARFIP1 / Fold change vs veh, ARFIP1 / RFU, FAM179B / Fold change vs veh, FAM179B / RFU, BCL10 / Fold change vs veh, BCL10 / RFU, UHRF1BP1L / Fold change vs veh, UHRF1BP1L / RFU, BET1 / Fold change vs veh, BET1 / RFU, CNOT2 / Fold change vs veh, CNOT2 / RFU, ZNF268 / Fold change vs veh, ZNF268 / Fold change vs veh, ZNF507 / RFU, DGCR2 / Fold change vs veh, DGCR2 / RFU, WDSUB1 / Fold change vs veh, WDSUB1 / Fold change vs veh, HSP90B1 /// MIR3652 / RFU, ADSS / Fold change vs veh, ADSS / RFU, GK / Fold change vs veh, GK / RFU, ZNF148 / Fold change vs veh, ZNF148 / RFU, TAF9 / Fold change vs veh, TAF9 / RFU, SLC1A5 / Fold change vs veh, SLC1A5 / RFU, SLMO2 / Fold change vs veh, SLMO2 / RFU, ABCC4 / Fold change vs veh, ABCC4 / RFU, LOC101060439 /// RAP1B / Fold change vs veh, LOC101060439 /// RAP1B / RFU, RFX7 / Fold change vs veh, RFX7 / RFU, GTPBP10 / Fold change vs veh, GTPBP10 / RFU, CNEP1R1 / Fold change vs veh, CNEP1R1 / RFU, BIVM-ERCC5 /// ERCC5 / Fold change vs veh, BIVM-ERCC5 /// ERCC5 / RFU, ILF3 / Fold change vs veh, ILF3 / RFU 11762660_at / Fold change /veh 11762660_at / RFU VCAN (11757783_s_at) / Fold change /veh VCAN (11757783_s_at) / RFU DDX43 (11728927_at) / Fold change /veh DDX43 (11728927_at) / RFU KRT8 (11758188_x_at) / Fold change /veh KRT8 (11758188_x_at) / RFU NKD1 (11759106_at) / Fold change /veh NKD1 (11759106_at) / RFU SRD5A1 (11742802_a_at) / Fold change /veh SRD5A1 (11742802_a_at) / RFU TPSAB1 /// TPSB2 (11721975_s_at) / Fold change /veh TPSAB1 /// TPSB2 (11721975_s_at) / RFU GSTM3 (11746129_a_at) / Fold change /veh GSTM3 (11746129_a_at) / RFU IL23R (11737362_x_at) / Fold change /veh IL23R (11737362_x_at) / RFU TMEM51 (11727254_a_at) / Fold change /veh TMEM51 (11727254_a_at) / RFU PIWIL2 (11732686_x_at) / Fold change /veh PIWIL2 (11732686_x_at) / RFU ORM1 (11744905_x_at) / Fold change /veh ORM1 (11744905_x_at) / RFU CCDC152 (11743942_at) / Fold change /veh CCDC152 (11743942_at) / RFU ECM1 (11717891_a_at) / Fold change /veh ECM1 (11717891_a_at) / RFU IL23R (11748794_a_at) / Fold change /veh IL23R (11748794_a_at) / RFU TNFAIP8L3 (11732012_x_at) / Fold change /veh TNFAIP8L3 (11732012_x_at) / RFU MBOAT4 (11741988_at) / Fold change /veh MBOAT4 (11741988_at) / RFU 11764193_at / Fold change /veh 11764193_at / RFU TMEM53 (11763286_at) / Fold change /veh TMEM53 (11763286_at) / RFU MAGEB2 (11727129_at) / Fold change /veh MAGEB2 (11727129_at) / RFU TMEM200A (11744735_a_at) / Fold change /veh TMEM200A (11744735_a_at) / RFU CCDC152 (11751479_a_at) / Fold change /veh CCDC152 (11751479_a_at) / RFU FAM211A (11726209_a_at) / Fold change /veh FAM211A (11726209_a_at) / RFU RGS16 (11746705_a_at) / Fold change /veh RGS16 (11746705_a_at) / RFU VCAN (11755009_s_at) / Fold change /veh VCAN (11755009_s_at) / RFU RHOB (11743442_s_at) / Fold change /veh RHOB (11743442_s_at) / RFU RGS16 (11720943_a_at) / Fold change /veh RGS16 (11720943_a_at) / RFU RGS16 (11720944_at) / Fold change /veh RGS16 (11720944_at) / RFU, VPS4B / Fold change vs veh, VPS4B / RFU, CREB1 / Fold change vs veh, CREB1 / RFU, DNAJC13 / Fold change vs veh, DNAJC13 / RFU, GNAQ / Fold change vs veh, GNAQ / RFU, CDK5R1 / Fold change vs veh, CDK5R1 / RFU, ZRANB3 / Fold change vs veh, ZRANB3 / RFU, CUL4A / Fold change vs veh, CUL4A / RFU, CCNY / Fold change vs veh, CCNY / RFU, UFL1 / Fold change vs veh, UFL1 / RFU, COG3 / Fold change vs veh, COG3 / RFU, DIAPH2 / Fold change vs veh, DIAPH2 / RFU, SKA2 / Fold change vs veh, SKA2 / RFU, AFF3 / Fold change vs veh, AFF3 / RFU, LMF1 / Fold change vs veh, LMF1 / RFU, IPO11 / Fold change vs veh, IPO11 / RFU, DFFB / Fold change vs veh, DFFB / RFU, FOXP1 / Fold change vs veh, FOXP1 / RFU, CARD8 / Fold change vs veh, CARD8 / RFU, STRN3 / Fold change vs veh, STRN3 / RFU, ADK / Fold change vs veh, ADK / RFU, RASSF2 / Fold change vs veh, RASSF2 / RFU, WIPF1 / Fold change vs veh, WIPF1 / RFU, LARP1B / Fold change vs veh, LARP1B / RFU, RASA1 / Fold change vs veh, RASA1 / RFU, RB1 / Fold change vs veh, RB1 / RFU, PPFIA1 / Fold change vs veh, PPFIA1 / RFU, MAT2A / Fold change vs veh, MAT2A / RFU, CCT5 / Fold change vs veh, CCT5 / RFU, WDR92 / Fold change vs veh, WDR92 / RFU, CUX1 / Fold change vs veh, CUX1 / RFU, TTC7A / Fold change vs veh, TTC7A / RFU, TMEM135 / Fold change vs veh, TMEM135 / RFU, DEPTOR / Fold change vs veh, DEPTOR / RFU, CPM / Fold change vs veh, CPM / RFU, DNAJB6 / Fold change vs veh, DNAJB6 / RFU, CACNA2D3 / Fold change vs veh, CACNA2D3 / RFU, DTX4 / Fold change vs veh, DTX4 / RFU, TFCP2 / Fold change vs veh, TFCP2 / RFU, GMCL1 /// GMCL1P1 / Fold change vs veh, GMCL1 /// GMCL1P1 / RFU, AEBP2 / Fold change vs veh, AEBP2 / RFU, SNHG1 /// SNORD22 /// SNORD25 /// SNORD26 /// SNORD27 /// SNORD28 /// SNORD29 /// SNORD31 / Fold change vs veh, SNHG1 /// SNORD22 /// SNORD25 /// SNORD26 /// SNORD27 /// SNORD28 /// SNORD29 /// SNORD31 / Fold change (Aza/veh), C12orf56 (ProbeSet 11735607_a_at) / Fold change (ACY-1035/veh), C12orf56 (ProbeSet 11735607_a_at) / Fold change (Aza/veh), FGFR1OP (ProbeSet 11751329_s_at) / Fold change (ACY-1035/veh), FGFR1OP (ProbeSet 11751329_s_at) / Fold change (Aza/veh), VPS36 (ProbeSet 11739960_a_at) / Fold change (ACY-1035/veh), VPS36 (ProbeSet 11739960_a_at) / RFU SYPL1 (11715823_x_at) / Fold change /veh SYPL1 (11715823_x_at) / RFU IGFBP7 (11715501_s_at) / Fold change /veh IGFBP7 (11715501_s_at) / RFU REEP3 (11722064_at) / Fold change /veh REEP3 (11722064_at) / RFU IGLL1 (11728026_x_at) / Fold change /veh IGLL1 (11728026_x_at): dose or concentration left out as unconfirmed", "conditions": "MV-4-11 cells, 48 hours", "data": [{"smiles": "Nc1ncn([C@@H]2O[C@H](CO)[C@@H](O)[C@H]2O)c(=O)n1", "note": "[azacitidine]", "values": [{"measurement": "RFU ARHGAP8 /// PRR5-ARHGAP8 (11727945_x_at)", "value": 97.01, "unit": "RFU"}]}]}
